Values joined by “and” are separate entries in the source; they are usually repeats but may differ in a detail not shown here. Equal values may be shown once. Toxic doses and inconclusive results are not listed. The calls were made as follows: active = survival T/C of 150% or more; inactive = T/C below 125% in these data. Starred links: 1 amine or outer side, 2 acyl side, 3 side chain; linkers in the order of their positions; H or OH if unused. Positions of bridges follow the written chain, without caps; N, C: chain ends. Non-standard residues stand in square brackets, D forms with d. Residues, ends and D or L forms follow the SMILES beside them. Chains are numbered I, II in the order given. Actinocin(9to1) = Cc1c2oc3c(C)ccc(C(=O)[*:1])c3nc-2c(C(=O)[*:2])c(N)c1=O; NMeV = CN[CH](C(=O)O)C(C)C; Pip = O=C(O)[CH]1CCCCN1; Sar = CNCC(=O)O
Tested on: BDF1 mice, P388 leukemia ip, median survival T/C
Assay: NCI In Vivo Anticancer Drug Screen. Data for tumor model P388 Leukemia (intraperitoneal) in B6D2F1 (BDF1) mice
Settings: endpoint: median survival time, higher = longer survival
Outline: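 Steps: implant the tumour, treat one group with compound and another with vehicle, record survival, then divide treated by control.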

[1] = dose: 100.0 mg/kg/injection, schedule: Q04DX003 (ip), vehicle: saline with Tween-80
[2] = dose: 200.0 mg/kg/injection, schedule: Q04DX003 (ip), vehicle: saline with Tween-80
[3] = dose: 400.0 mg/kg/injection, schedule: Q04DX003 (ip), vehicle: saline with Tween-80
[4] = dose: 50.0 mg/kg/injection, schedule: Q01DX009 (ip), vehicle: saline with Tween-80
[5] = dose: 100.0 mg/kg/injection, schedule: Q01DX009 (ip), vehicle: saline with Tween-80
[6] = dose: 200.0 mg/kg/injection, schedule: Q01DX009 (ip), vehicle: saline with Tween-80

Measured: T/C

Cn1c([N+](=O)[O-])cnc1CSc1nc(-c2ccccc2)no1
inactive: [1] 93 % of control | [2] 117 % of control | [3] 93 % of control

CCOC(=O)N1Cc2cc3ccccc3nc2C1CC(=O)O (centres undefined)
inactive: dose: 100.0 mg/kg/injection, schedule: Q04DX003 (ip), vehicle: Klucel (hydroxypropylcellulose) (HPC) 100 % of control | dose: 200.0 mg/kg/injection, schedule: Q04DX003 (ip), vehicle: Klucel (hydroxypropylcellulose) (HPC) 100 % of control | dose: 400.0 mg/kg/injection, schedule: Q04DX003 (ip), vehicle: Klucel (hydroxypropylcellulose) (HPC) 104 % of control

C=CN1C(=O)N(C=C)C(C)(CC(C)C)C1=O (centres undefined)
inactive: dose: 50.0 mg/kg/injection, schedule: Q04DX003 (ip), vehicle: saline with Tween-80 104 % of control | [1] 109 % of control | [2] 100 % of control

O=C(O)CC[S-].[Ag+]
inactive: dose: 25.0 mg/kg/injection, schedule: Q01DX009 (ip), vehicle: saline with Tween-80 90 % of control | [4] 90 % of control | [5] 86 % of control

C=CCN(CC=C)P(=O)(N1CC1)N1CC1C (centres undefined)
inactive: dose: 0.25 mg/kg/injection, schedule: Q04DX003 (ip), vehicle: saline 120 % of control | dose: 0.31 mg/kg/injection, schedule: Q01DX009 (ip), vehicle: saline 100 % of control | dose: 1.8 mg/kg/injection, schedule: Q01DX009 (ip), vehicle: saline 91 % of control | dose: 5.0 mg/kg/injection, schedule: Q04DX003 (ip), vehicle: saline 90 % of control
active: dose: 0.5 mg/kg/injection, schedule: Q01DX009 (ip), vehicle: saline 156 % of control and 158 % of control | dose: 0.83 mg/kg/injection, schedule: Q01DX009 (ip), vehicle: saline 150 % of control and 166 % of control and 173 % of control | dose: 1.65 mg/kg/injection, schedule: Q04DX003 (ip), vehicle: saline 159 % of control | dose: 2.5 mg/kg/injection, schedule: Q04DX003 (ip), vehicle: saline 163 % of control and 190 % of control | dose: 3.75 mg/kg/injection, schedule: Q04DX003 (ip), vehicle: saline 163 % of control

ClCc1ccc(CCl)cc1
inactive: dose: 7.03 mg/kg/injection, schedule: Q01DX009 (ip), vehicle: Klucel (hydroxypropylcellulose) (HPC) 110 % of control

Cc1cc(C)c(C)c(C(O)(C(=O)O)c2ccccc2)c1 (centres undefined)
inactive: [5] 87 % of control | [6] 104 % of control

COc1ccc(C2=CCCCC2)cc1
inactive: [5] 103 % of control | [1] 104 % of control | [6] 103 % of control | [2] 104 % of control | [3] 95 % of control

O=c1[nH]cn[nH]1
inactive: dose: 100.0 mg/kg/injection, schedule: Q01DX001 (ip), vehicle: saline sonified 122 % of control | dose: 200.0 mg/kg/injection, schedule: Q01DX001 (ip), vehicle: saline sonified 95 % of control | dose: 400.0 mg/kg/injection, schedule: Q01DX001 (ip), vehicle: saline sonified 90 % of control

C=C1C(=O)OC2CC3(C)OC3C3OC3C3=CC(OC3=O)C12 (centres undefined)
inactive: dose: 1.25 mg/kg/injection, schedule: Q01DX010 (ip), vehicle: saline 115 % of control | dose: 2.5 mg/kg/injection, schedule: Q01DX010 (ip), vehicle: saline 115 % of control | dose: 5.0 mg/kg/injection, schedule: Q01DX010 (ip), vehicle: saline 115 % of control | dose: 10.0 mg/kg/injection, schedule: Q01DX010 (ip), vehicle: saline 100 % of control

CCCCCCCCSC(=S)N(C)NC(=O)c1ccccn1
inactive: [4] 99 % of control | [5] 105 % of control

Cc1c2oc3c(C)ccc(C(=O)NC4C(=O)NC(C(C)C)C(=O)N5CCCCC5C(=O)N(C)CC(=O)N(C)C(C(C)C)C(=O)OC4C)c3nc-2c(C(=O)NC2C(=O)NC(C(C)C)C(=O)N3CCCCC3C(=O)N(C)CC(=O)N(C)C(C(C)C)C(=O)OC2C)c(N)c1=O (centres undefined) (I: TV[Pip][Sar][NMeV] / II: TV[Pip][Sar][NMeV]; ester I:1-I:C, II:1-II:C; linker I:N-II:N via Actinocin(9to1); configuration not given here)
inactive: dose: 0.25 mg/kg/injection, schedule: Q01DX009 (ip), vehicle: saline + alcohol 114 % of control | dose: 0.75 mg/kg/injection, schedule: Q04DX003 (ip), vehicle: saline + alcohol 116 % of control
active: dose: 2.0 mg/kg/injection, schedule: Q01DX009 (ip), vehicle: saline + alcohol 162 % of control | dose: 4.0 mg/kg/injection, schedule: Q01DX009 (ip), vehicle: saline + alcohol 180 % of control | dose: 6.0 mg/kg/injection, schedule: Q04DX003 (ip), vehicle: saline + alcohol 160 % of control | dose: 12.0 mg/kg/injection, schedule: Q04DX003 (ip), vehicle: saline + alcohol 155 % of control

Reference: PubChem BioAssay AID328 (DTP/NCI, 2004)
